From US20240269298A1, “PHOSPHONYL DERIVATIVE, AND COMPOSITION AND PHARMACEUTICAL APPLICATION THEREOF” (XIZANG HAISCO PHARMACEUTICAL CO., LTD., priority 2021, published 2024) come the findings set out here.

Read-outs that look alike come from different tables or passages of the source.

Data set [1] in a line: Pharmacokinetic test in mice. Type of data set: in vivo. The settings on record: male, ICR, mouse, po, administration i.g. (10 mg/kg), plasma. As to the method: Test objective: In this experiment, a single dose of test compounds was administered to ICR mice intravenously and intragastrically, the concentrations of the test compounds in plasma of mice were measured, and the pharmacokinetic characteristics and bioavailability of the test compounds in mice were evaluated.
Experimental animals: male ICR mice, 20-25 g, purchased from BEIJING HFK BIOSCIENCE CO., LTD. with the laboratory animal production license number of SCXK (JING) 2019-0008; or purchased from CHENGDU DDOSSY EXPERIMENTAL ANIMALS CO., LTD. (SCXK (CHUAN) 2020-030); or purchased from HUNAN SJA LABORATORY ANIMAL CO., LTD. (SCXK (XIANG) 2019-0004).
Experimental method: on the day of the experiment, ICR mice were randomly grouped according to their body weights. The mice were fasted with water available for 12 to 14 hours one day before the administration, and were fed 4 hours after the administration.
Sampling: before and after the administration, blood was taken from the orbits of the mice under isoflurane anesthesia, and placed in an EDTAK2 centrifuge tube. Centrifugation was carried out at 5000 rpm at 4° C. for 10 min, and the plasma was collected.
Time points for plasma collection in G1&G2 groups: 0, 5 min, 15 min, 30 min, 1h, 2h, 4h, 6h, 8h, and 24 h; • time points for plasma collection in G3 group: 0, 5 min, 15 min, 30 min, 1 h, 2 h, 4 h, 6h, 8h, and 24 h; • before analysis and detection, all samples were stored at −80° C. The samples were analyzed quantitatively by LC-MS/MS.

For data set [2], the system named is NCI-H1975 (EGFR-L858R-T790M) cells. In words: Inhibitory activity on proliferation of NCI-H1975 (EGFR-L858R-T790M) cells (CTG, 72 h). Type of data set: cell-based. The settings on record: Homo sapiens. Summed up:
(§1)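 Cells plated at 1000/well (NCI-H1975, RPMI1640+10% FBS) or 3000/well (A431, DMEM+10% FBS), dosed next day with compounds (0.1% DMSO final) for 72 h at 37 °C, 5% CO2. Viability by CTG luminescence, normalised to vehicle control; IC50 from nonlinear-regression dose-survival curves.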

For data set [3], the system named is A431 (EGFR-WT) cells. Briefly: Inhibitory activity on proliferation of A431 (EGFR-WT) cells (CTG, 72 h). The format is cell-based. As to conditions: Homo sapiens, A-431. In a few lines: as §1
Setting [4] is: read-out: IC50 (value in brackets).

With `COc1cc(N2CCC(N3CCN(CC4CCN(c5ccc6c(c5)C(=O)N(C5CCC(=O)NC5=O)C6=O)CC4)CC3)CC2)c(-c2cnn(C)c2)cc1Nc1ncc(Br)c(Nc2ccc(C3CC3)cc2P(C)(C)=O)n1` (stereo not drawn) [Compound 55, 5-(4-((4-(1-(4-((5-bromo-4-((4-cyclopropyl-2-(dimethylphosphoryl)phenyl)amino)pyrimidin-2-yl)amino)-5-methoxy-2-(1-methyl-1H-pyrazol-4-yl)phenyl)piperidin-4-yl)piperazin-1-yl)methyl)piperidin-1-yl)-2-(2,6-dioxopiperidin-3-yl)isoindoline-1,3-dione], the AUC(0-t) in data set [1] amounted to 19900 ng·h/mL. Also, the IC50 in data set [2] (read-out: IC50 (class symbol)) was under 100 nM; in data set [2] (setting [4]) it was 30 nM; in data set [3], at least 10 µM.

In data set [1], `COc1cc(N2CCC(N3CCN(CC4CCN(c5cc6c(cc5F)C(=O)N(C5CCC(=O)NC5=O)C6=O)CC4)CC3)CC2)c(-c2cnn(C)c2)cc1Nc1ncc(Cl)c(Nc2ccc(-c3ccccc3)cc2P(C)(C)=O)n1` (stereo not drawn) [Compound 93, 5-(4-((4-(1-(4-((5-chloro-4-((3-(dimethylphosphoryl)-[1,1′-biphenyl]-4-yl)amino)pyrimidin-2-yl)amino)-5-methoxy-2-(1-methyl-1H-pyrazol-4-yl)phenyl)piperidin-4-yl)piperazin-1-yl)methyl)piperidin-1-yl)-2-(2,6-dioxopiperidin-3-yl)-6-fluoroisoindoline-1,3-dione] gave an AUC(0-t) of 4620 ng·h/mL. In addition, the IC50 is under 100 nM in data set [2] (read-out: IC50 (class symbol)), 49 nM in data set [2] (setting [4]) and at least 10 µM in data set [3].

In data set [1], `COc1cc(N2CCC(N3CCC4(CCCN(c5cc6c(cc5F)C(=O)N(C5CCC(=O)NC5=O)C6=O)C4)CC3)CC2)c(-c2cnn(C)c2)cc1Nc1ncc(Br)c(Nc2ccc(-c3ccccc3)cc2P(C)(C)=O)n1` (stereo not drawn) [Compound 88, 5-(9-(1-(4-((5-bromo-4-((3-(dimethylphosphoryl)-[1,1′-biphenyl]-4-yl)amino)pyrimidin-2-yl)amino)-5-methoxy-2-(1-methyl-1H-pyrazol-4-yl)phenyl)piperidin-4-yl)-2,9-diazaspiro[5.5]undecan-2-yl)-2-(2,6-dioxopiperidin-3-yl)-6-fluoroisoindoline-1,3-dione] had an AUC(0-t) of 5120 ng·h/mL. For the same molecule, the IC50 is under 100 nM in data set [2] (read-out: IC50 (class symbol)), 67 nM in data set [2] (setting [4]) and at least 10 µM in data set [3].

For `COc1cc(N2CCC(CN3CCC4(CCCN(c5ccc6c(c5)C(=O)N(C5CCC(=O)NC5=O)C6=O)C4)CC3)CC2)c(-c2cnn(C)c2)cc1Nc1ncc(Br)c(Nc2ccc(-c3ccccc3)cc2P(C)(C)=O)n1` (stereo not drawn) [Compound 38, 5-(9-((1-(4-((5-bromo-4-((3-(dimethylphosphoryl)-[1,1′-biphenyl]-4-yl)amino)pyrimidin-2-yl)amino)-5-methoxy-2-(1-methyl-1H-pyrazol-4-yl)phenyl)piperidin-4-yl)methyl)-2,9-diazaspiro[5.5]undecan-2-yl)-2-(2,6-dioxopiperidin-3-yl)isoindoline-1,3-dione], in data set [1], the AUC(0-t) amounted to 3730 ng·h/mL. Moreover, the IC50 in data set [2] (read-out: IC50 (class symbol)) is under 100 nM; in data set [2] (setting [4]), 60 nM; in data set [3], at least 10 µM.

`COc1cc(N2CCN(c3ccc4c(c3)C(=O)N(C3CCC(=O)NC3=O)C4=O)CC2)c(-c2cnn(C)c2)cc1Nc1ncc(Br)c(Nc2ccc(-c3ccccc3)cc2P(C)(C)=O)n1` (stereo not drawn) [Compound 80, 5-(4-(4-((5-bromo-4-((3-(dimethylphosphoryl)-[1,1′-biphenyl]-4-yl)amino)pyrimidin-2-yl)amino)-5-methoxy-2-(1-methyl-1H-pyrazol-4-yl)phenyl)piperazin-1-yl)-2-(2,6-dioxopiperidin-3-yl)isoindoline-1,3-dione]: the AUC in data set [1] is 81900 ng·h/mL. The same molecule had a half-life in data set [1] of 624 min. The IC50 in data set [2] (read-out: IC50 (class symbol)) was 100 to 500 nM; in data set [2] (setting [4]), 129 nM; in data set [3] it was at least 10 µM.

The AUC(0-t) is exposure summed from dosing to a finite time, without extrapolation to infinity. In general, IC50 refers to the point on the concentration scale where inhibition reaches its midpoint. What is called AUC is concentration integrated over time. In general, half-life refers to the time needed for the level to fall by half in the phase considered. Lower therefore signals fast loss.
